Data on 18 compounds can be found in patent publication US5182289A, “Heterobicyclic compounds having antiinflammatory activity” (Schering Corporation, priority 1990, dated 1993).

One test addresses T1, 5-lipoxygenase (Homo sapiens, UniProt P09917).
T1 construct: Human polymorphonuclear (PMN) leukocytes (neutrophils) are obtained from normal healthy volunteers; endogenous in cells; host or cells: human polymorphonuclear leukocytes (neutrophils) from blood of healthy volunteers
T1 sequence (P09917 1-674): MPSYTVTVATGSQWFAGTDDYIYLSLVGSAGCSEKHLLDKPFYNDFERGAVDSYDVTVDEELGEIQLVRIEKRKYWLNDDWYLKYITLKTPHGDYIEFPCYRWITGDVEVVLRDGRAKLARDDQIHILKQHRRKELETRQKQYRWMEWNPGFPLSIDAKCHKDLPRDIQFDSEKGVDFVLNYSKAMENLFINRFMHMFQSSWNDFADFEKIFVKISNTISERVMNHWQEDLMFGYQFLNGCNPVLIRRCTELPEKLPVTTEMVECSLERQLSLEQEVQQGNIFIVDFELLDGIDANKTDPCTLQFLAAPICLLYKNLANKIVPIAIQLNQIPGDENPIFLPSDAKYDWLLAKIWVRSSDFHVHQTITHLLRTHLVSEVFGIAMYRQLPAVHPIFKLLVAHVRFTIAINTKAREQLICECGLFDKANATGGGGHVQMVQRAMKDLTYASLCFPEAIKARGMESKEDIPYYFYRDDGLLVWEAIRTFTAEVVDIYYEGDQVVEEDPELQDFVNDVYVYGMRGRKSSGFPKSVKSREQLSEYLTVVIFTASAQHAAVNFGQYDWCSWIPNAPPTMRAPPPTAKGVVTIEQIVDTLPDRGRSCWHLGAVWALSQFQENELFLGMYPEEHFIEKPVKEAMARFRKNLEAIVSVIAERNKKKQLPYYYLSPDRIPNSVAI
Description: 5-Lipoxygenase Assay in human polymorphonuclear (PMN) leukocytes, 5-HETE production. The format is cell-based. The protocol:
Human polymorphonuclear (PMN) leukocytes (neutrophils) are obtained from normal healthy volunteers by venipuncture and collected with heparin anticoagulant. Neutrophils are isolated by Dextran/Ficol sedimentation as described (Billah et al, J. Biol. Chem. 260, 6899-6906 (1985)). In brief, 30 ml of blood is mixed with 5 ml of dextran (Sigma) solution and kept at 37° C. for 30 min. The upper white cellrich layer is removed and 10 ml is layered on 9 ml of Ficol-Paque solution (Pharmacia) and centrifuged at 280×g for 10 min. at 5° C. The supernatant is removed and the neutrophil pellet is resuspended in HEPES buffer containing 25 mM N-2-hydroxyethylpiperazine-N^1 -2 ethanesulfonic acid(HEPES), 125 mM NaCl, 2.5 mM KCL, 0.7 mM MgCl2, 0.5 mM and 10 mM glucose at pH 7.4. The red cells in the suspension are lysed by hypotonic shock. The neutrophils are washed by centrifugation in HEPES buffer two times and finally resuspended at a concentration of 20×10^6 cells/ml in the presence of 1 mM CaCl2.
Neutrophils (0.2 ml of suspension) are preincubated with dimethylsulfoxide (DMSO) vehicle with or without test compound (1 ul) for 4 minutes then incubated for 5 minutes with ^14 C-arachidonic acid (Amersham, 59 Ci/mole) at a 9 uM final concentration, and the calcium ionophore A23187 (Calbiochem) at a 1 uM final concentration. These stimulants are added in 10 ul of water:ethanol (9:1). The reaction is stopped by addition of methanol (0.4 ml), and cellular debris is removed by centrifugation. Aliquots (100 ul) of the incubations are run on a Waters two pump high performance liquid chromatography (HPLC) system fitted with a DuPont Zorbax ODS, 5 u, 4×80 […] Reliance Cartridge column and C18 "Guard Pak". The column is initially eluted at 2 ml/min with 80 percent of the mixture water:methanol:acetic acid (46:54:0.08) containing 1 mM EDTA adjusted to pH 6.0 with ammonium hydroxide (Pump A) and 20% methanol (Pump B). At 10 minutes, a linear gradient is established. to reach 100 percent methanol (Pump B) at 27 minutes. Between 27 and 28 minutes, methanol is exchanged for the initial eluting solvent and by 35 minutes the column is reequilibrated for the next sample. The effluent is analyzed by a continuous flow radioactivity monitor (model ROMONA-D) interfaced with a Hewlett Packard Lab Automation System for quantitation of radioactive products. This includes the major 5-lipoxygenase product, 5-hydroxyeicosatetraenoic acid (5-HETE) which elutes at 20 minutes. The results with and without test compound are used to calculate percent inhibition of 5-HETE production.

Test [1] relates to Reversed Passive Arthus Reaction (RPAR) in the pleural cavity. Description: Reversed Passive Arthus Reaction (RPAR) in the pleural cavity: cells and fluid. The note with it: dose 25 mpk; for inhibition in vivo at 25 mg/kg: Rattus norvegicus, 4 h; for RPAR-Pleural Cavity Percent Inhibition cells / RPAR-Pleural Cavity Percent Inhibition fluid: Table 3A, formula (IIi). The format is in vivo, male rats. The protocol:
Reversed Passive Arthus Reaction (RPAR) Assay
Groups of 4 male rats were injected in the penile vein with antigen (1 mg BSA in 0.2 mL of saline per rat) and 0.5 hour later injected in the pleural cavity with antibody (1.0 mg antibody protein in the IgG fraction of rabbit anti-BSA in 0.2 mL). […] After 4 hours the animals were killed with CO2, and the pleural cavities were opened and the exudate drained into a graduated conical glass centrifuge tube containing indomethacin (1.8 ug) and nordihydroguaiaretic acid (NDGA) (15 ug) to block ex vivo metabolite synthesis. The volume of the exudate was measured. The cavity was then washed out with saline-EDTA to achieve a final volume of 5.0 mL. The number of cells were determined in a Colulter Counter. The cells were spun-down (1000×g) and the exudate supernatant was added to 4 volumes of 95% ethanol and samples were kept on ice for 30 minutes. After removal of the protein precipitate (2,500×g) the ethanol extract of the exudate was dried under N2 and then stored at -20° C. For radioimmunoassay (RIA) analysis the samples were redissolved in water to a volume of 1 mL per rat. Utilizing internally spiked samples, recovery of TXB2 (tritiated thromboxane B2) and LTE4 (tritiated leukotriene-E4) from exudates was determined to be 84±2% (SEM) and 89±2% (N=4), respectively. Exudate samples were directly assayed in duplicate with the commercial ^3 H-TXB2 RIA kit from New England Nuclear and the ^3 H-LTC4 /D4 /E4 kit from Amersham. The assay was validated using reversed-phase HPLC analysis of LTs in the standard procedure described by M. W. Musch, R. W. Bryant, C. Coscollaela, R. F. Myers and M. I. Siegel, Prostaglandins, Vol. 29, pp 405-430 (1985). Samples of ethanol exudate extract were "spiked" with ^3 H-LTs to follow HPLC purification and recovery.

Where [2] appears, read: read-out: RPAR-Pleural Cavity % Inhibition cells.
Where [3] appears, read: read-out: RPAR-Pleural Cavity % Inhibition fluid.

Read-outs that look alike come from different tables or passages of the source.

What is called inhibition is how much of the control response was suppressed. Read a high inhibition as a response far below the control. For `CN1C(=O)C([S+]([O-])c2ccccc2)c2cccnc21` (centres unmarked) [Compound 24, 1,3-dihydro-1-methyl-3-(phenylsulfinyl)-2H-pyrrolo[2,3-b]pyridin-2-one], 15 µM produced 24% inhibition against 5-lipoxygenase.
On to `CC1(C)C(=S)N(c2ccccc2)c2ncccc21` [Compound 7, 1,3-dihydro-3,3-dimethyl-1-phenyl-2H-pyrrolo[2,3-b]pyridin-2-thione], for which the inhibition in vivo at 25 mg/kg in test [1] (setting [2]) amounted to 35%; in test [1] (setting [3]), 33%.
For the compound `CSc1ccc(N2C(=O)C(C)(C)c3cccnc32)cc1` [Compound 10, 1,3-dihydro-3,3-dimethyl-1-[4-(methylthio)phenyl]-2H-pyrrolo[2,3-b]pyridin-2-one], the inhibition in vivo at 25 mg/kg in test [1] (setting [2]) is 29%; in test [1] (setting [3]) it was 37%.
In the case of `CC(C(=O)O)c1cccnc1Nc1ccc(Cl)cc1` (stereo not drawn) [Compound 49, sodium 2-(4-chlorophenylamino)-α-methyl-3-pyridine acetate], in test [1], the “RPAR-Pleural Cavity Percent Inhibition cells” value is 67% and the “RPAR-Pleural Cavity Percent Inhibition fluid” value was 54%.
For the compound `CC(=O)C1(SCCO)C(=O)N(c2ccccc2)c2ncccc21` (centres unmarked) [Compound 29], the inhibition at 15 µM against 5-lipoxygenase came out at 56%.
For `O=C(O)Cc1cccnc1Nc1cccc(C(F)(F)F)c1` [Compound 45, 2-(3-trifluoromethylphenylamino)-3-pyridine acetic acid], in test [1], the “RPAR-Pleural Cavity Percent Inhibition cells” value came out at 22% and the “RPAR-Pleural Cavity Percent Inhibition fluid” value worked out at 14%.
Consider `O=C1C(Sc2ccccc2)c2cccnc2N1c1cccc(C(F)(F)F)c1` (centres unmarked) [Compound 12, 1,3-dihydro-3-(phenylthio)-1-(3-trifluoromethylphenyl)-2H-pyrrolo[2,3-b]pyridin-2-one], for which, on 5-lipoxygenase, testing at 15 µM gave an inhibition of 79%.
With `O=C(O)Cc1cccnc1Nc1ccc(Cl)c(Cl)c1` [Compound 47, sodium 2-(3,4-dichlorophenylamino)-3-pyridine acetate], in test [1], the “RPAR-Pleural Cavity Percent Inhibition cells” value is recorded as 16% and the “RPAR-Pleural Cavity Percent Inhibition fluid” value is 19%.
`CSC1(C)C(=O)N(c2ccccc2)c2ncccc21` (centres unmarked) [Compound 32, 1,3-dihydro-3-methyl-3-(methylthio)-1-phenyl--2H-pyrrolo[2,3-b]pyridin-2-one]: the inhibition at 15 µM against 5-lipoxygenase turned out to be 21%.
`COc1ccc(SC2C(=O)N(c3ccccc3)c3ncccc32)cc1` (centres unmarked) [Compound 21, 1,3-dihydro-3-(4-methoxyphenylthio)-1-phenyl-2H-pyrrolo[2,3-b]pyridin-2-one]: testing at 15 µM against 5-lipoxygenase gave an inhibition of 61%.
As to `O=C(O)Cc1cccnc1Nc1ccc(Cl)cc1` [Compound 48, sodium 2-(4-chlorophenylamino)-3-pyridine acetate], in test [1], the “RPAR-Pleural Cavity Percent Inhibition cells” value is given as 0% and the “RPAR-Pleural Cavity Percent Inhibition fluid” value is reported as 0%.
Compound `O=C1C(SCCO)c2cccnc2N1c1ccccc1` (centres unmarked) [Compound 25, 1,3-dihydro-3-(2-hydroxyethylthio)-1-phenyl-2H-pyrrolo[2,3-b]pyridin-2-one] showed an inhibition at 15 µM at 5-lipoxygenase of 8%.
On to `CC1(F)C(=O)N(c2ccccc2)c2ncccc21` (centres unmarked) [Compound 4, 1,3-dihydro-3-fluoro-3-methyl-1-phenyl-2H-pyrrolo[2,3-b]pyridin-2-one], for which the inhibition in vivo at 25 mg/kg in test [1] (setting [2]) was determined as 50%; in test [1] (setting [3]) it was 35%.
`CN1C(=O)C(S(=O)(=O)c2ccccc2)c2cccnc21` (centres unmarked) [Compound 31, 1,3-dihydro-1-methyl-3-(phenylsulfonyl)-2H-pyrrolo[2,3-b]pyridin-2-one] had an inhibition at 15 µM against 5-lipoxygenase of 10%.
Same read-out and setting: for `CC(=O)OCCSC1C(=O)N(c2ccccc2)c2ncccc21` (centres unmarked) [Compound 30, 1,3-dihydro-3-[2-(acetoxy)-ethylthio]-1-phenyl-2H-pyrrolo[2,3-b]pyridin-2-one] the value was 26%.
Consider `CC(C)(C(=O)O)c1cccnc1Nc1ccc(Cl)cc1` [Compound 46, sodium 2-(4-chlorophenylamino)-α,α-dimethyl-3-pyridine acetate], for which, in test [1], the “RPAR-Pleural Cavity Percent Inhibition cells” value is given as 62% and the “RPAR-Pleural Cavity Percent Inhibition fluid” value was 71%.
With `O=C1C(Sc2ccccc2)c2cccnc2N1Cc1ccccc1` (centres unmarked) [Compound 27, 1,3-dihydro-1-(phenylmethyl)-3-(phenylthio)-2H-pyrrolo[2,3-b]pyridin-2-one], the inhibition at 15 µM at 5-lipoxygenase was determined as 16%.
As for `CC(C)c1ccc(N2C(=O)C(Sc3ccccc3)c3cccnc32)cc1` (centres unmarked) [Compound 15, 1,3-dihydro-1-(4-(1-methylethyl)-phenyl)-3-(phenylthio)-2H-pyrrolo[2,3-b]pyridin-2-one], at 5-lipoxygenase (50 μM), the inhibition at 50 µM came to 84%.
